Experimental data as given in patent US4224448A, “2'-(5'-Nitrofuryl) substituted quinolines” (priority 1966, dated 1980).
In brackets after ≈: the same amount, converted by molar mass. Read-outs that look alike come from different tables or passages of the source.

Columns and labels:
Test in all cases: Minimum inhibitory concentration, conventional tube dilution method
Format in all cases: cell-based
Staph. aureus = conditions: Staphylococcus aureus, read-out: Minimal Inhibitory Concentration, Staph. aureus
From the text: (§1) The activity of some of the new nitrofuryl quinoline derivatives of the present invention is exemplified in Table 1 against a gram-positive (Staph. aureus), a gram-negative (Salmonella) bacterium and a fungus (Candida albicans). Table 1 indicates the minimum inhibitory concentration of the compound under reference in mg/100 cc required in order to inhibit the growth between 1 and 6 strains of each type. The measurements have been carried out by the conventional tube dilution method at 37 degrees after 24 hours.

Salmonella = conditions: read-out: Minimal Inhibitory Concentration, Salm.
From the text: as §1

Candida albicans = conditions: read-out: Minimal Inhibitory Concentration, Cand. Alb.
From the text: as §1

[1] = gram-positive, tube dilution, 37 degrees, 24 hours, between 1 and 6 strains, mg/100 cc, decimal comma
[2] = gram-negative, tube dilution, 37 degrees, 24 hours, between 1 and 6 strains, mg/100 cc, decimal comma
[3] = fungus, tube dilution, 37 degrees, 24 hours, between 1 and 6 strains, mg/100 cc, decimal comma

| Structure (SMILES) | MIC (Staph. aureus; [1]) | MIC (Salmonella; [2]) | MIC (Candida albicans; [3]) | MIC (Staph. aureus; 24 h) | MIC (Candida albicans; 24 h) | MIC (Salmonella; 24 h) |
| --- | --- | --- | --- | --- | --- | --- |
| Cc1ccc2nc(C)cc(-c3ccc([N+](=O)[O-])o3)c2c1 [CH3 H NF H CH3 H H, 2-methyl-4-[2'-(5'-nitrofuryl)]-6-methyl quinoline] | 0.1 µg/mL (≈ 0.373 µM) | 5 µg/mL (≈ 18.6 µM) | 5 µg/mL (≈ 18.6 µM) | – | – | – |
| CCc1cc(-c2ccc([N+](=O)[O-])o2)c2ccc(O)cc2n1 [C2 H5 H 5NF H H OH H] | 0.1 to 0.5 µg/mL (≈ 0.352 to 1.76 µM) | 5 µg/mL (≈ 17.6 µM) | 50 µg/mL (≈ 176 µM) | – | – | – |
| CCOc1ccc2c(-c3ccc([N+](=O)[O-])o3)cc(C)[n+]([O-])c2c1 [O CH3 H NF H H OC2 H5 H] | 0.05 to 0.1 µg/mL (≈ 0.159 to 0.318 µM) | 10 to 50 µg/mL (≈ 31.8 to 159 µM) | 10 µg/mL (≈ 31.8 µM) | – | – | – |
| Cc1cc(-c2ccc([N+](=O)[O-])o2)c2ccc(NC(=O)C(F)(F)F)c(C)c2n1 [CH3 H NF H H NHCOCF3 CH3] | 0.5 µg/mL (≈ 1.32 µM) | > 50 µg/mL | > 50 µg/mL | – | – | – |
| CCOc1ccc2c(-c3ccc([N+](=O)[O-])o3)cc(C)nc2c1 [CH3 H NF H H OC2 H5 H, 2-methyl-4-[2'-(5'-nitrofuryl)]-7-ethoxy quinoline] | 0.1 µg/mL (≈ 0.335 µM) | 5 µg/mL (≈ 16.8 µM) | 25 µg/mL (≈ 83.8 µM) | – | – | – |
| Cc1cc(-c2ccc([N+](=O)[O-])o2)c2cc3ccccc3cc2n1 [CH3 H NF H drawing 6 H, 2-methyl-4-[2'-(5'-nitrofuryl)]-6,7-benzoquinoline] | 5 µg/mL (≈ 16.4 µM) | > 10 µg/mL | > 50 µg/mL | – | – | – |
| CCCc1cc(-c2ccc([N+](=O)[O-])o2)c2cc(C)ccc2[n+]1[O-] [O C3 H7 H NF H CH3 H H] | 1 to 5 µg/mL (≈ 3.2 to 16 µM) | > 50 µg/mL | 5 to 25 µg/mL (≈ 16 to 80 µM) | – | – | – |
| CCc1ccc2c(c1)c(-c1ccc([N+](=O)[O-])o1)cc(CC)[n+]2[O-] [O C2 H5 H NF H C2 H5 H H] | 0.1 µg/mL (≈ 0.32 µM) | > 10 µg/mL | 5 to 10 µg/mL (≈ 16 to 32 µM) | – | – | – |
| O=[N+]([O-])c1ccc(-c2cc[n+]([O-])c3ccccc23)o1 [O H H NF H H H H] | 0.1 to 0.5 µg/mL (≈ 0.39 to 1.95 µM) | 5 µg/mL (≈ 19.5 µM) | 0.5 µg/mL (≈ 1.95 µM) | – | – | – |
| Cc1cc(-c2ccc([N+](=O)[O-])o2)c2ccc(Cl)cc2n1 [CH3 H NF H H Cl H, 2-methyl-4-[2'-(5'-nitrofuryl)]-7-chloro quinoline] | 0.1 µg/mL (≈ 0.346 µM) | 0.5 µg/mL (≈ 1.73 µM) | 25 µg/mL (≈ 86.6 µM) | – | – | – |
| COc1cc(OC)c2c(-c3ccc([N+](=O)[O-])o3)cc(C)nc2c1 [CH3 H NF OCH3 H OCH3 H] | 0.5 µg/mL (≈ 1.59 µM) | > 50 µg/mL | > 50 µg/mL | – | – | – |
| O=C(O)c1cc(-c2ccc([N+](=O)[O-])o2)c2ccccc2n1 [COOH H NF H H H H, 2-carboxy-4-[2'-(5'-nitrofuryl)]quinoline] | 1 µg/mL (≈ 3.52 µM) | > 10 µg/mL | 30 to 50 µg/mL (≈ 106 to 176 µM) | – | – | – |
| Cc1cc(-c2ccc([N+](=O)[O-])o2)c2c([N+](=O)[O-])ccc(C)c2n1 [CH3 H NF NO2 H H CH3] | – | > 50 µg/mL | – | 0.5 to 1 µg/mL (≈ 1.6 to 3.19 µM) | > 50 µg/mL | – |
| Cc1cc(-c2ccc([N+](=O)[O-])o2)nc2ccccc12 [NF H CH3 H H H H, 2-[2'-(5'-nitrofuryl)]-4-methyl quinoline] | 0.2 to 0.5 µg/mL (≈ 0.787 to 1.97 µM) | 5 µg/mL (≈ 19.7 µM) | 0.5 µg/mL (≈ 1.97 µM) | – | – | – |
| Cc1cc(-c2ccc([N+](=O)[O-])o2)c2ccc(Cl)cc2[n+]1[O-] [O CH3 H NF H H Cl H, 2-methyl-4-[2'-(5'-nitrofuryl)]-7-chloro-quinoline N-oxide] | 1 µg/mL (≈ 3.28 µM) | > 25 µg/mL | 2 to 5 µg/mL (≈ 6.56 to 16.4 µM) | – | – | – |
| Cc1cc(-c2ccc([N+](=O)[O-])o2)c2c(C)ccc(N)c2n1 [CH3 H NF CH3 H H NH2] | 5 µg/mL (≈ 17.6 µM) | > 50 µg/mL | > 50 µg/mL | – | – | – |
| CCCc1cc(-c2ccc([N+](=O)[O-])o2)c2cc(C)ccc2n1 [C3 H7 H NF H CH3 H H] | 1 µg/mL (≈ 3.37 µM) | – | 5 to 10 µg/mL (≈ 16.9 to 33.7 µM) | – | – | > 50 µg/mL |
| O=C(O)c1cc(-c2ccc([N+](=O)[O-])o2)c2ccccc2[n+]1[O-] [O COOH H NF H H H H] | 0.5 µg/mL (≈ 1.67 µM) | 50 µg/mL (≈ 167 µM) | 10 to 25 µg/mL (≈ 33.3 to 83.3 µM) | – | – | – |
| Cc1cc(-c2ccc([N+](=O)[O-])o2)c2ccc(O)cc2n1 [CH3 H NF H H OH H, 2-methyl-4-[2'-(5'-nitrofuryl)]-7-hydroxy quinoline] | 0.1 µg/mL (≈ 0.37 µM) | 5 µg/mL (≈ 18.5 µM) | 10 µg/mL (≈ 37 µM) | – | – | – |
| COc1ccc2c(-c3ccc([N+](=O)[O-])o3)cc(C(=O)O)nc2c1 [COOH H 5NF H H OCH3 H] | 0.5 µg/mL (≈ 1.59 µM) | 10 µg/mL (≈ 31.8 µM) | 50 µg/mL (≈ 159 µM) | – | – | – |
| COc1ccc2c(-c3ccc([N+](=O)[O-])o3)cc[n+]([O-])c2c1 [O H H NF H H OCH3 H, 4-[2'-(5'-nitrofuryl)]-7-methoxy quinoline N-oxide] | 0.01 to 0.05 µg/mL (≈ 0.0349 to 0.175 µM) | 5 µg/mL (≈ 17.5 µM) | 0.5 µg/mL (≈ 1.75 µM) | – | – | – |
| COc1cc2nc(C)cc(-c3ccc([N+](=O)[O-])o3)c2cc1OC [CH3 H NF H OCH3 OCH3 H] | 0.5 to 1 µg/mL (≈ 1.59 to 3.18 µM) | 25 µg/mL (≈ 79.5 µM) | > 50 µg/mL | – | – | – |
| Cc1cc(C)c2nc(C)cc(-c3ccc([N+](=O)[O-])o3)c2c1 [CH3 H NF H CH3 H CH3, 2,6,8-trimethyl-4-[2'-(5'-nitrofuryl)]quinoline] | 0.05 to 0.1 µg/mL (≈ 0.177 to 0.354 µM) | > 50 µg/mL | > 50 µg/mL | – | – | – |
